Like-named read-outs stand apart in the source and are kept apart here.
Tests used:
[1] = system: KPL4 cells (PI3Kα mutant H1047R); assay: In vitro cell viability assay (Cell Titer-Glo), KPL4
Experimental: (§6) Cells were seeded (1,500 per well) in 384-well plates for 16 h. On day 2, nine serial 1:3 compound dilutions were made in DMSO in a 96-well plate. The compounds were then further diluted into growth media using a Rapidplate robot (Zymark Corp.). The diluted compounds were then added to quadruplicate wells in the 384-well cell plates and incubated at 37° C. and 5% CO2. After 4 d, relative numbers of viable cells were measured by luminescence using Cell Titer-Glo (Promega) according to the manufacturer's instructions and read on a Wallac Multilabel Reader (Perkin-Elmer). EC50 values were calculated using Prism 6.0 software (GraphPad).

[2] = system: HCC1954 cells (PI3Kα mutant H1047R); assay: In vitro cell viability assay (Cell Titer-Glo), HCC1954
Experimental: as §6

P-PRAS40 SW48(E545K) = assay: Inhibition of P-PRAS40 in SW48 isogenic cells, PI3Kα mutant E545K; assay type: cell-based; settings: for EC50: Homo sapiens, SW48, 24 hours of compound treatment, read-out: P-PRAS40 SW48(E545K) EC50; for Fold Selectivity for SW48(E545K) vs. SW48(parental): EC50 potency ratio, p value (Student t-Test) given
Experimental: (§1) All statistics were performed using KaleidaGraph Software (version 4.1.3). A Student t-Test was performed using unpaired data with equal variance to compare activity against mutant cells and wild-type cells. P<0.05 is considered to be significant.
(§2) The following assays are intended for determining the cellular potency and mutant selectivity of small molecule PI3Kα inhibitors. […] Mutant selectivity of PI3Kα inhibitors is determined by EC50 potency ratios in the WT vs. E545K cell lines and WT vs. H1047R cell lines.
(§3) The three cell lines (WT, E545K, and H1047R) are plated and assayed in parallel. The following day, test compounds are serially diluted in dimethyl sulfoxide (DMSO) and added to cells (final DMSO concentration 0.5%). […] Cell lysates are added to assay plates pre-coated with antibodies against phosphorylated PRAS40. Phosphorylated PRAS40 in samples are allowed to bind to the capture antibodies overnight at 4° C. The detection antibody (anti-total PRAS40, labeled with an electrochemiluminescent SULFO-TAG) is added to the bound lysate and incubated for 1 hour at room temperature. The MSD Read Buffer is added such that when a voltage is applied to the plate electrodes, the labels bound to the electrode surface emit light. The MSD Sector Instrument measures the intensity of the light, and quantitatively measures the amount of phosphor-PRAS40 in the sample. Percent inhibition of PRAS40 phosphorylation by varying concentrations of test compounds is calculated relative to untreated controls. EC50 values are calculated using the 4 parameter logistic nonlinear regression dose-response model.

PI3Kβ [3] = target: T1, PI3Kβ (Homo sapiens, UniProt P42338); assay: PI3K binding assay (lipid kinase reaction, ADP-Glo), PI3K beta; assay type: biochemical; settings: Table 2A; first value of cell (ADP-Glo, Example 901)
T1 sequence (P42338 whole entry, canonical isoform): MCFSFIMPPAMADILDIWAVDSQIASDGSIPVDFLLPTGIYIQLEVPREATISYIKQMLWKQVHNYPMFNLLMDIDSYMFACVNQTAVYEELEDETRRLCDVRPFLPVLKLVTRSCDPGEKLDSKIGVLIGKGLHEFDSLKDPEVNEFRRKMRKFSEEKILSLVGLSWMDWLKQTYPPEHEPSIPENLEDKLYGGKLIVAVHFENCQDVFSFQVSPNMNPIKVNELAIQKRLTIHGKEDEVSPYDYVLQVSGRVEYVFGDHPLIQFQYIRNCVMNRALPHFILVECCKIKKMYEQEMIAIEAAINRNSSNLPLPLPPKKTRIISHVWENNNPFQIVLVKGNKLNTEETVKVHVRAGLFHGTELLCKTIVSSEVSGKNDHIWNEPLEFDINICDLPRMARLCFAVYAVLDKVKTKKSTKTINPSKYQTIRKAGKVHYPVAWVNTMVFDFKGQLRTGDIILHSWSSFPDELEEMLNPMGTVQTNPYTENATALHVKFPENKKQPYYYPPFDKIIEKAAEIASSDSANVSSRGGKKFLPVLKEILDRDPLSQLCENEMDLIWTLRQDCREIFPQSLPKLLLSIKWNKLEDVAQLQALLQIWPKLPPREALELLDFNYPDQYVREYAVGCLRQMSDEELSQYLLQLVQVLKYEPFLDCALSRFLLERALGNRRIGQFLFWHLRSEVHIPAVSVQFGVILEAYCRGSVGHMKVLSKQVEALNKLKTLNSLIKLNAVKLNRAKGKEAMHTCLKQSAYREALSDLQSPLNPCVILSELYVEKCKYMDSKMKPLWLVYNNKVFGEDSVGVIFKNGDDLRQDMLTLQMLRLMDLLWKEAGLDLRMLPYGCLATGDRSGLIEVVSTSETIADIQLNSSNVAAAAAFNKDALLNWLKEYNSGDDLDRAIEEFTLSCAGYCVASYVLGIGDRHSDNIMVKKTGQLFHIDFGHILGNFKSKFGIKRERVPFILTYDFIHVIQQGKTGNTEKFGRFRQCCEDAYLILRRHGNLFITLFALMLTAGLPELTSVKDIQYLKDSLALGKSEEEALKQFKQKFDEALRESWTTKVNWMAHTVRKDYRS
T1 sequence (P27986 whole entry partner, canonical isoform): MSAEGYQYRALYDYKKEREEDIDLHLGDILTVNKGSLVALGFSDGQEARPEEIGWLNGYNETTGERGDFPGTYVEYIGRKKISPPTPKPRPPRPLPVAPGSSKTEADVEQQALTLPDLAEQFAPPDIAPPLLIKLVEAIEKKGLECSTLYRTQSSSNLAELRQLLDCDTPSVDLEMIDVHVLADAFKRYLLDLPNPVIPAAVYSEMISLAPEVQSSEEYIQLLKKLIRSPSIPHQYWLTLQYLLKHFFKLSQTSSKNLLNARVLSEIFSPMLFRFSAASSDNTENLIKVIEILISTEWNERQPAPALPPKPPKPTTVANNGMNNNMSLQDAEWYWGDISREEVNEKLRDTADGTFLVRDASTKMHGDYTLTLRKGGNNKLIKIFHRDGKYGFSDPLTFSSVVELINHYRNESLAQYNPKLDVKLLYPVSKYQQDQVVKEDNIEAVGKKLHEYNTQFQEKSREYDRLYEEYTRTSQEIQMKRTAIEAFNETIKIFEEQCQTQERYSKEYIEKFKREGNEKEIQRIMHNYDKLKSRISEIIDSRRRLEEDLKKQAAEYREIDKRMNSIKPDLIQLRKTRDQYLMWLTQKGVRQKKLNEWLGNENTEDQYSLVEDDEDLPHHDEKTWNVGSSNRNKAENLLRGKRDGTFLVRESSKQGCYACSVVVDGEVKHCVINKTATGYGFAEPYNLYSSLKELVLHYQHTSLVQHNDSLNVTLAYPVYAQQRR
Experimental: (§4) Reactions are carried out using the following conditions for each PI3K isoform as in Table 5.
(§5) All reactions are carried out at room temperature. […] The reaction is started by the addition of 2 μL ATP/MgCl2. The kinase reaction buffer contains 50 mM HEPES, 50 mM NaCl 3 mM MgCl2, 0.01% BSA, 1% DMSO, and enzyme and substrate concentrations as indicated in the above table. The reaction is stopped by the addition of 10 μL ADP-Glo reagent. Plates are read in a Perkin Elmer Envision system using luminescence mode. 10 point dose response curves are generated for each test compound. Ki values for each compound are determined using the Morrison Equation.

[4] = system: MCF7 cells (PI3Kα mutant E545K); assay: In vitro cell viability assay (Cell Titer-Glo), MCF7
Experimental: as §6

[5] = system: KPL4 breast cancer cell line (PI3Kα mutant H1047R) tumors; settings: KPL4 xenograft in SCID mice, daily PO (oral) dosing; for Tolerability / treatment-related body weight loss: all doses; for Inhibition of KPL4 tumor growth in vivo: FIGS. 2A and 2B
Experimental: (70-72° F.) and 40-60% humidity.
Tumor weight may be estimated with the assumption that 1 mg is equivalent to 1 mm^3 of tumor volume.

PI3Kα = PI3Kα (Homo sapiens, UniProt P42336); assay: PI3K binding assay (lipid kinase reaction, ADP-Glo), PI3K alpha; assay type: biochemical; settings: for Ki: first value of cell (ADP-Glo, Example 901), read-out: PI3Kα Ki
Chain of PI3Kα (P42336 whole entry): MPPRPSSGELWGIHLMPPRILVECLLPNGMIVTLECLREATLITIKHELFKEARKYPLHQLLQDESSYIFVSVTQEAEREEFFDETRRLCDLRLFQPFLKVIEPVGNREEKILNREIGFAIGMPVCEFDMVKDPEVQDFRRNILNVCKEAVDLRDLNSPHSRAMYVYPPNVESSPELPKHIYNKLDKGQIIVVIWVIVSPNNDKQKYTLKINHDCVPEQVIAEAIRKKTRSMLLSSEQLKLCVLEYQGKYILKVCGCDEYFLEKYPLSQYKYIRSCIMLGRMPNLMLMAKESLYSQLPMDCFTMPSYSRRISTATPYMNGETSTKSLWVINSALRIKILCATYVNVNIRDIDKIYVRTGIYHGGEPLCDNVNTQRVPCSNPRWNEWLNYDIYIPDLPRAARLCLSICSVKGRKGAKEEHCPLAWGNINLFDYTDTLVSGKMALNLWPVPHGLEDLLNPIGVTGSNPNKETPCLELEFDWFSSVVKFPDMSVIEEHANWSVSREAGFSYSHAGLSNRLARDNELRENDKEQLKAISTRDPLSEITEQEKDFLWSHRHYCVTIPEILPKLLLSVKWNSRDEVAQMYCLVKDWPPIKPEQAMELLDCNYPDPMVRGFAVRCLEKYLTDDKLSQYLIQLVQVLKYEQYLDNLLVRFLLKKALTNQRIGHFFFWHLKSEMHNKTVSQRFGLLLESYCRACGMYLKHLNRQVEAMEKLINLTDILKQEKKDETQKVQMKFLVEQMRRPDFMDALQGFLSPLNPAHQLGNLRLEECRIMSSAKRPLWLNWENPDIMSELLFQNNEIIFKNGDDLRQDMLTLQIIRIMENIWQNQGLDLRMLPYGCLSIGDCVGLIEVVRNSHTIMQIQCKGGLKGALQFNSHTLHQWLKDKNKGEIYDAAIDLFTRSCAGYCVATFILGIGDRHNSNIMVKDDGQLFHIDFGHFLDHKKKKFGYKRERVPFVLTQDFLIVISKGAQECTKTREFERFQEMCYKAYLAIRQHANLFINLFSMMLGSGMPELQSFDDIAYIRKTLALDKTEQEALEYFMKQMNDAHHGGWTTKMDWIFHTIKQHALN
Chain of PI3Kα (P27986 whole entry partner): as the sequence (P27986 whole entry partner, canonical isoform) above
Experimental: as §4, §5

P-PRAS40 SW48(parental) = assay: Inhibition of P-PRAS40 in SW48 isogenic cells, PI3Kα wild-type (parental); settings: Homo sapiens, SW48, 24 h
Experimental: The three cell lines (WT, E545K, and H1047R) are plated and assayed in parallel. The following day, test compounds are serially diluted in dimethyl sulfoxide (DMSO) and added to cells (final DMSO concentration 0.5%). Cells are then incubated for 24 hours at 37° C. and 5% CO2. […] Cell lysates are added to assay plates pre-coated with antibodies against phosphorylated PRAS40. Phosphorylated PRAS40 in samples are allowed to bind to the capture antibodies overnight at 4° C. The detection antibody (anti-total PRAS40, labeled with an electrochemiluminescent SULFO-TAG) is added to the bound lysate and incubated for 1 hour at room temperature. The MSD Read Buffer is added such that when a voltage is applied to the plate electrodes, the labels bound to the electrode surface emit light. The MSD Sector Instrument measures the intensity of the light, and quantitatively measures the amount of phosphor-PRAS40 in the sample. Percent inhibition of PRAS40 phosphorylation by varying concentrations of test compounds is calculated relative to untreated controls. EC50 values are calculated using the 4 parameter logistic nonlinear regression dose-response model.

PI3Kδ = PI3Kδ (Homo sapiens, UniProt O00329); assay: PI3K binding assay (lipid kinase reaction, ADP-Glo), PI3K delta; assay type: biochemical; settings: Table 2A; first value of cell (ADP-Glo, Example 901)
Chain of PI3Kδ (O00329 whole entry): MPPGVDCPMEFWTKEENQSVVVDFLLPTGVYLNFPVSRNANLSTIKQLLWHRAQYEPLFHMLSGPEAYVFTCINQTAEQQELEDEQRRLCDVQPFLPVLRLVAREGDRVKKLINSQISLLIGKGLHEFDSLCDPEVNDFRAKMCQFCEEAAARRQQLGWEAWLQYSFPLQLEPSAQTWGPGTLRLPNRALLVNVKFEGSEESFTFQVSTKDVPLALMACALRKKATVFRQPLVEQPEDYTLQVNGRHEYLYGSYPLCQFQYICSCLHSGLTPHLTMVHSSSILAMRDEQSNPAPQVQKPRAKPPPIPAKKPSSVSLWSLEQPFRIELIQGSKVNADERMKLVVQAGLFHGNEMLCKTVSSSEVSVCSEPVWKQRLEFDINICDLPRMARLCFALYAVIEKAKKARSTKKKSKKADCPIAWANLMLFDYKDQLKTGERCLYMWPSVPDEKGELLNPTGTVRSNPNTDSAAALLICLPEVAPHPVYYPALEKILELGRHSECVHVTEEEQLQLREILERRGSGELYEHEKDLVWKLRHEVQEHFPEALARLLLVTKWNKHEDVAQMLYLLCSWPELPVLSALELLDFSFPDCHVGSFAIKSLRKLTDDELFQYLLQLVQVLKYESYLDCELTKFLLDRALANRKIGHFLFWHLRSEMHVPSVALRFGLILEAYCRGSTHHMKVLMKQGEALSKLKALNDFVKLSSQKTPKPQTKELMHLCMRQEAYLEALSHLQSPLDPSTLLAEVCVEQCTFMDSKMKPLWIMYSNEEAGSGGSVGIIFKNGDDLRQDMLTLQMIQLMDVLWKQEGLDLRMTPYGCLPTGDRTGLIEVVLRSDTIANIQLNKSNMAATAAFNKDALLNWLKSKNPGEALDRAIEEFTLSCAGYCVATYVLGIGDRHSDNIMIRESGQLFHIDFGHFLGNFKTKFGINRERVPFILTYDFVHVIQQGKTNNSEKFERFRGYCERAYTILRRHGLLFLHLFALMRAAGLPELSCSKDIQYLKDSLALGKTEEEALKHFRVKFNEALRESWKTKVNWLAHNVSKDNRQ
Chain of PI3Kδ (P27986 whole entry partner): as the sequence (P27986 whole entry partner, canonical isoform) above
Experimental: as §4, §5

PI3Kγ [6] = target: T2, PI3Kγ (Homo sapiens, UniProt P48736); assay: PI3K binding assay (lipid kinase reaction, ADP-Glo), PI3K gamma; assay type: biochemical; settings: Table 2A; first value of cell (ADP-Glo, Example 901)
T2 sequence (P48736 whole entry): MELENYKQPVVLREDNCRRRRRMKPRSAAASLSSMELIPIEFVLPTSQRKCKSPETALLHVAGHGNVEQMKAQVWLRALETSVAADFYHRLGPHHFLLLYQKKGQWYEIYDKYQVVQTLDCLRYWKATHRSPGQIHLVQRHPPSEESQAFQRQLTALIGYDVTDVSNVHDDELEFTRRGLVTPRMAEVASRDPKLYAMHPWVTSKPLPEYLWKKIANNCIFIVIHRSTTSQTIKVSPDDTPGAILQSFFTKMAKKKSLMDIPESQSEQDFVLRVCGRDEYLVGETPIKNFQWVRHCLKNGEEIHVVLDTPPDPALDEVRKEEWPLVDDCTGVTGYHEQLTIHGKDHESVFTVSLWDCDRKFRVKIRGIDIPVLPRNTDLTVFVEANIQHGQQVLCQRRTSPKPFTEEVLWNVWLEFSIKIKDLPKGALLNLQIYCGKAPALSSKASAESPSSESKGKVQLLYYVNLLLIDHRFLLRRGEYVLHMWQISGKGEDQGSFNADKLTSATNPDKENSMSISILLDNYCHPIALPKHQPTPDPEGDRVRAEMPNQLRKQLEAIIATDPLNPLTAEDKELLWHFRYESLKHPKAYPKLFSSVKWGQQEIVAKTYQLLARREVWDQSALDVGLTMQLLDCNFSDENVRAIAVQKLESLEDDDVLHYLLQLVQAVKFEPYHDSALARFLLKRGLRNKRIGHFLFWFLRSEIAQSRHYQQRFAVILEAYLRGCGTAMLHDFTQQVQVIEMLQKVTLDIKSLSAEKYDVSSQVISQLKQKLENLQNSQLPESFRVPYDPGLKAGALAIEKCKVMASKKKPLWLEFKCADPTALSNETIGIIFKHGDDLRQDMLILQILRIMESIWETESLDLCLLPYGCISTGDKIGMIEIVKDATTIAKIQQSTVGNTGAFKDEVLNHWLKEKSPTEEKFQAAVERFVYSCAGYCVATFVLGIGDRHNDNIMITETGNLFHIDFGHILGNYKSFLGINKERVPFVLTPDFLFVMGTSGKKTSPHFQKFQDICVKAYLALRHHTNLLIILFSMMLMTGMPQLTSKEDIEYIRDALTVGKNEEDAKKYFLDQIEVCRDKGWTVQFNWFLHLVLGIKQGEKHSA
Experimental: as §4, §5

P-PRAS40 SW48(H1047R) = assay: Inhibition of P-PRAS40 in SW48 isogenic cells, PI3Kα mutant H1047R; assay type: cell-based; settings: for EC50: Homo sapiens, SW48, 24 hours of compound treatment, read-out: P-PRAS40 SW48(H1047R) EC50; for Fold Selectivity for SW48(H1047R) vs. SW48(parental): EC50 potency ratio, p value (Student t-Test) given
Experimental: as §1, §2, §3

PI3Kγ [7] = target: T2, PI3Kγ; assay: Fluorescence polarization (FP) Ki, methods of Example 901 of U.S. Pat. No. 8,242,104, PI3K gamma; settings: read-out: PI3Kγ FP Ki; Table 2A; second value of cell after slash (FP)
PI3Kβ [8] = target: T1, PI3Kβ; assay: Fluorescence polarization (FP) Ki, methods of Example 901 of U.S. Pat. No. 8,242,104, PI3K beta; settings: read-out: PI3Kβ FP Ki; Table 2A; second value of cell after slash (FP)
[9] = system: locally advanced or metastatic solid tumors; settings: phase Ia, single agent; all responses in patients with PIK3CA mutant tumors (Juric D. et al. AACR 2013); cited from earlier work
[10] = KPL4, 96 h, read-out: KPL4 antiproliferative EC50 (μM)
[11] = Homo sapiens, HCC1954, 96 h, read-out: HCC1954 antiproliferative EC50 (μM)
[12] = Homo sapiens, MCF7, 96 h, read-out: MCF7 antiproliferative EC50 (μM)
[13] = Table 2A, selectivity ratio (fold)
[14] = read-out: P-PRAS40 SW48(parental) EC50 (nM)
[15] = read-out: KPL4 antiproliferative EC50, 4 d incubation, Cell Titer-Glo
[16] = read-out: HCC1954 antiproliferative EC50, 4 d incubation, Cell Titer-Glo
[17] = read-out: MCF7 antiproliferative EC50, 4 d incubation, Cell Titer-Glo

| SMILES | EC50 [1, 10] [µM] | EC50 [2, 11] [µM] | EC50 (P-PRAS40 SW48(E545K); Table 3A, geometric mean) [nM] | Fold Selectivity for SW48(E545K) vs. SW48(parental) (P-PRAS40 SW48(E545K); Table 3A) | Ki (PI3Kβ [3]) [nM] | EC50 [4, 12] [µM] | Tolerability / treatment-related body weight loss [5] | Inhibition of KPL4 tumor growth in vivo [5] | Ki (PI3Kα; Table 2A) [nM] | Selectivity for PI3Kα vs. PI3K-β (PI3Kα; [13]) | Selectivity for PI3Kα vs. PI3Kγ (PI3Kα; [13]) | Selectivity for PI3Kα vs. PI3Kδ (PI3Kα; [13]) | EC50 (P-PRAS40 SW48(parental); [14]) [nM] | Ki (PI3Kδ) [nM] | Ki (PI3Kγ [6]) [nM] | EC50 (P-PRAS40 SW48(H1047R); Table 3A, geometric mean) [nM] | Fold Selectivity for SW48(H1047R) vs. SW48(parental) (P-PRAS40 SW48(H1047R); Table 3A) | EC50 [1, 15] [µM] | EC50 [2, 16] [µM] | EC50 [4, 17] [µM] | other results |
| --- | --- | --- | --- | --- | --- | --- | --- | --- | --- | --- | --- | --- | --- | --- | --- | --- | --- | --- | --- | --- | --- |
| C[C@@H]1COC(=O)N1c1cn2c(n1)-c1ccc(N3CCC[C@H]3C(N)=O)cc1OCC2 [Compound 102, (S)-1-(2-((R)-4-Methyl-2-oxooxazolidin-3-yl)-5,6-dihydrobenzo[f]imidazo[1,2-d][1,4]oxazepin-9-yl)pyrrolidine-2-carboxamide] | 0.05 | 0.48 | 16.6 | 2.4 (p < 0.001) | 418 | 0.1 | well tolerated, with no treatment-related body weight loss observed | strongly inhibit the growth of KPL4 tumors in vivo in a dose-dependent manner | 0.56 | 745 | 366 | 24 | 39.2 | 13.3 | 205 | 16.4 | 2.4 (p < 0.001) | – | – | – | – |
| NC(=O)[C@@H]1CCCN1c1ccc2c(c1)OCCn1cc(N3C(=O)OC[C@H]3C(F)(F)F)nc1-2 [Compound 103, (S)-1-(2-((S)-2-Oxo-4-(trifluoromethyl)oxazolidin-3-yl)-5,6-dihydrobenzo[f]imidazo[1,2-d][1,4]oxazepin-9-yl)pyrrolidine-2-carboxamide] | 0.02 | 0.15 | 6.9 | 2.7 (p = 0.002) | 108 | 0.38 | well tolerated, with no treatment-related body weight loss observed | strongly inhibit the growth of KPL4 tumors in vivo in a dose-dependent manner | 0.155 | 698 | 290 | 15 | 18.7 | 2.28 | 45 | 7.1 | 2.6 (p = 0.002) | – | – | – | – |
| C[C@H](Oc1ccc2c(c1)OCCn1cc(N3C(=O)OC[C@H]3C(F)(F)F)nc1-2)C(N)=O [Compound 105, (S)-2-((2-((S)-2-Oxo-4-(trifluoromethyl)oxazolidin-3-yl)-5,6-dihydrobenzo[f]imidazo[1,2-d][1,4]oxazepin-9-yl)oxy)propanamide] | 0.008 | 0.005 | 62.9 | 3.2 (p = 0.012) | 661 | 0.05 | – | – | 2.75 | – | – | – | 199 | 42.2 | 255 | 53.6 | 3.7 (p = 0.008) | – | – | – | Selectivity for PI3Kα vs. PI3K-β (PI3Kα): 241; Selectivity for PI3Kα vs. PI3Kγ (PI3Kα): 93; Selectivity for PI3Kα vs. PI3Kδ (PI3Kα): 15 |
| CS(=O)(=O)N1CCN(Cc2cc3nc(-c4cccc5[nH]ncc45)nc(N4CCOCC4)c3s2)CC1 [pictilisib, 4-(2-(1H-indazol-4-yl)-6-((4-(methylsulfonyl)piperazin-1-yl)methyl)thieno[3,2-d]pyrimidin-4-yl)morpholine, reference compound] | – | – | – | – | – | – | – | – | – | – | – | – | – | – | – | – | – | 0.21 | 0.75 | 0.12 | – |
| Cc1nc(-c2cn3c(n2)-c2ccc(-c4cnn(C(C)(C)C(N)=O)c4)cc2OCC3)n(C(C)C)n1 [taselisib, 2-(4-(2-(1-isopropyl-3-methyl-1H-1,2,4-triazol-5-yl)-5,6-dihydrobenzo[f]imidazo[1,2-d][1,4]oxazepin-9-yl)-1H-pyrazol-1-yl)-2-methylpropanamide, reference compound] | – | – | – | – | 53 | – | – | – | – | – | – | – | – | – | – | – | – | 0.02 | 0.04 | 0.02 | EC50 (P-PRAS40 SW48(E545K); Table 3B comparator compounds): 3.4 nM; Ki (PI3Kγ [7]): 0.97 nM; Ki (PI3Kβ [8]): 9.1 nM; Partial responses (PRs) in enrolled patients [9]: 6/34; EC50 (P-PRAS40 SW48(parental); read-out: P-PRAS40 SW48(parental) EC50 (μM)): 7.9 nM; EC50 (P-PRAS40 SW48(H1047R); Table 3B comparator compounds): 4 nM |

Reference: patent publication US9643980B2, “Benzoxazepin oxazolidinone compounds and methods of use” (Genentech, Inc., priority 2015, dated 2017)
